# Reference: patent publication US7960408B2, “Quinolinyl and benzothiazolyl modulators” (Amgen Inc., priority 2000, dated 2011)
# Target: T1, PPARγ (Homo sapiens, UniProt P37231)
# T1 construct: made in house
# T1 sequence (P37231 1-505): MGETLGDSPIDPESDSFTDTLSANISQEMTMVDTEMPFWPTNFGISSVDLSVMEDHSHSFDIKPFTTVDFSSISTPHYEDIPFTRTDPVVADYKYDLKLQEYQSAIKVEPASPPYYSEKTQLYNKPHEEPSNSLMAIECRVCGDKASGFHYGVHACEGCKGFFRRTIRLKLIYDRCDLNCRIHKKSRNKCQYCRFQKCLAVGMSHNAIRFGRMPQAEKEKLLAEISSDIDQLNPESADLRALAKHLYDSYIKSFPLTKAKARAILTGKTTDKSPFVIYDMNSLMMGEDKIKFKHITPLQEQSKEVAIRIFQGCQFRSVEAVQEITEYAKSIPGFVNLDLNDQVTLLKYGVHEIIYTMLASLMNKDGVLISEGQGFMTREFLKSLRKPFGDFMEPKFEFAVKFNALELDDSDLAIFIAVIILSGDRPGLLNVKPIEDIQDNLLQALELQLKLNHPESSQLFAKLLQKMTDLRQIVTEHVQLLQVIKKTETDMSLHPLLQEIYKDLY
# Test: PPARγ ligand binding assay utilizing [3H]-BRL 49653 as the radioligand
# Conditions: concentration required to reduce by 50% the specific binding of [3H]-BRL 49653
# Text: The compounds of the present invention can be evaluated for modulation of the PPARγ receptor using assays such as those described in Jiang, et al., Nature 391:82-86 (1998), Ricote, et al., Nature 391:79-82 (1998) and Lehmann, et al., J. Biol. Chem. 270(12): 12953-12956 (1995). Alternatively, the compounds can be evaluated for their ability to displace radiolabeled BRL 49653 from a PPARγ-GST fusion protein as follows:
# PPARγ-GST fusion protein (prepared according to standard procedures), [^3H]—BRL 49653 having 50 Ci/mmol specific activity, Polyfiltronics Unifilter 350 filtration plate and glutathione-Sepharose® beads (from Pharmacia: washed twice with 10× binding buffer in which BSA and DTI can be left out).
# Binding buffer (10 mM Tris-HCl, pH 8.0, 50 mM KCI, 10 mM DTT, 0.02% BSA and 0.01% NP-40) is added in 80-μL amounts to the wells of the filtration plate. The test compound is then added in 10 μL of DMSO. The PPARγ-GST fusion protein and radiolabeled BRL compound are premixed in binding buffer containing 10 mM DTT and added in 10-μL amounts to the wells of the plate to provide final concentrations of 1 μg/well of PPARγ-GST fusion protein and 10 nM [^3H]—BRL 49653 compound. The plate is incubated for 15 min. Glutathione-agarose bead is added in 50 μL of binding buffer, and the plate is vigorously shaken for one hour. The plate is washed four times with 200 μL/well of binding buffer (without BSA and DTT). The bottom of the plate is sealed and 200 μL/well of scintillation cocktail is added. The top of the plate is then sealed and the radioactivity is determined.
# IC50 values are defined as the concentration of test compounds required to reduce by 50% the specific binding of [^3H]—BRL 49653 and are represented by (+) <30 μM; (++) <10 μM; (+++) <1 μM.
row,IC50,Structure (SMILES)
1,< 1000 nM,"O=S(=O)(Nc1cc(Cl)cc(Oc2nc3ccc(F)cc3s2)c1)c1ccc(Cl)cc1Cl [Compound 305, 2,4-Dichloro-N-[3-chloro-5-(6-fluoro-benzothiazol-2-yloxy)-phenyl]-benzenesulfonamide]"
2,1000 to 10000 nM,O=S(=O)(Nc1cc(Cl)c([S+]([O-])c2cnc3ccccc3c2)c(Cl)c1)c1ccccc1 (centres unmarked) [Compound 5.3]
3,< 1000 nM,"O=S(=O)(Nc1cc(Cl)c(Cc2cc3ccccc3cn2)c(Cl)c1)c1ccc(Cl)cc1Cl [Compound 238, 2,4-Dichloro-N-(3,5-dichloro-4-isoquinolin-3-ylmethyl-phenyl)-benzenesulfonamide]"
4,1000 to 10000 nM,"CC(=O)c1ccc(S(=O)(=O)Nc2cc(Cl)c(Oc3nc4ccc(Cl)cc4s3)c(Cl)c2)cc1 [Compound 436, 4-Acetyl-N-[3,5-dichloro-4-(6-chloro-benzothiazol-2-yloxy)-phenyl]-benzenesulfonamide]"
5,1000 to 10000 nM,"COc1cccc2sc(Oc3cc(Cl)cc(NS(=O)(=O)c4ccc(C(F)(F)F)cc4Cl)c3)nc12 [Compound 296, 2-Chloro-N-[3-chloro-5-(4-methoxy-benzothiazol-2-yloxy)-phenyl]-4-trifluoromethyl-benzenesulfonamide]"
6,< 1000 nM,"CS(=O)(=O)c1ccc2sc(Oc3c(Cl)cc(NS(=O)(=O)c4ccc(C(F)(F)F)cc4Cl)cc3Cl)nc2c1 [Compound 458, 2-Chloro-N-[3,5-dichloro-4-(5-methanesulfonyl-benzothiazol-2-yloxy)-phenyl]-4-trifluoromethyl-benzenesulfonamide]"
7,< 1000 nM,"CCOC(=O)c1ccc2nc(Oc3cc(Cl)cc(NS(=O)(=O)c4ccc(C(F)(F)F)cc4Cl)c3)sc2c1 [Compound 310, 2-[3-Chloro-5-(2-chloro-4-trifluoromethyl-benzenesulfonylamino)-phenoxy]-benzothiazole-6-carboxylic acid ethyl ester]"
8,< 1000 nM,"O=S(=O)(Nc1cc(Cl)c(Cc2cc3ccccc3cn2)c(Cl)c1)c1ccc(C(F)(F)F)cc1Cl [Compound 237, 2-Chloro-N-(3,5-dichloro-4-isoquinolin-3-ylmethyl-phenyl)-4-trifluoromethyl-benzenesulfonamide]"
9,1000 to 10000 nM,"O=[N+]([O-])c1ccc2sc(Oc3c(Cl)cc(NS(=O)(=O)c4ccc(C(F)(F)F)cc4Cl)cc3Cl)nc2c1 [Compound 455, 2-Chloro-N-[3,5-dichloro-4-(5-nitro-benzothiazol-2-yloxy)phenyl]-4-trifluoromethyl-benzenesulfonamide]"
10,< 1000 nM,"O=S(=O)(Nc1cc(Cl)cc(Cc2nc3cc(Cl)ccc3s2)c1)c1ccc(C(F)(F)F)cc1Cl [Compound 331, 2-Chloro-N-[3-chloro-5-(5-chloro-benzothiazol-2-ylmethyl)-phenyl]-4-trifluoromethyl-benzenesulfonamide]"
11,10000 to 30000 nM,"O=S(=O)(Nc1cc(Cl)cc(Oc2nc3c(Cl)cccc3s2)c1)c1ccc(Cl)cc1Cl [Compound 291, 2,4-Dichloro-N-[3-chloro-5-(4-chloro-benzothiazol-2-yloxy)-phenyl]-benzenesulfonamide]"
12,< 1000 nM,"O=S(=O)(Nc1cc(Cl)c(Cc2ccc3ccccc3n2)c(Cl)c1)c1ccc(Cl)cc1Cl [Compound 225, 2,4-Dichloro-N-(3,5-dichloro-4-quinolin-2-ylmethyl-phenyl)-benzenesulfonamide]"
13,< 1000 nM,"CS(=O)(=O)Nc1ccc2nc(Oc3c(Cl)cc(NS(=O)(=O)c4ccc(C(F)(F)F)cc4Cl)cc3Cl)sc2c1 [Compound 440, 2-Chloro-N-[3,5-dichloro-4-(6-methanesulfonylamino-benzothiazol-2-yloxy)-phenyl]-4-trifluoromethyl-benzenesulfonamide]"
14,< 1000 nM,"N#Cc1ccc2sc(Oc3cc(Cl)cc(NS(=O)(=O)c4ccc(Cl)cc4Cl)c3)nc2c1 [Compound 287, 2,4-Dichloro-N-[3-chloro-5-(5-cyano-benzothiazol-2-yloxy)-phenyl]-benzenesulfonamide]"
15,< 1000 nM,"Cc1ccc2nc(Oc3cc(Cl)cc(NS(=O)(=O)c4ccc(C(F)(F)F)cc4Cl)c3)sc2c1 [Compound 299, 2-Chloro-N-[3-chloro-5-(6-methyl-benzothiazol-2-yloxy)-phenyl]-4-trifluoromethyl-benzenesulfonamide]"
16,< 1000 nM,"Cc1ccc2nc(Oc3cc(Cl)cc(NS(=O)(=O)c4cc(C)c(Cl)cc4Cl)c3)sc2c1 [Compound 301, 2,4-Dichloro-N-[3-chloro-5-(6-methyl-benzothiazol-2-yloxy)-phenyl]-5-methyl-benzenesulfonamide]"
17,< 1000 nM,"O=S(=O)(Nc1cc(Cl)cc(Oc2nc3cc(-c4nnn[nH]4)ccc3s2)c1)c1ccc(C(F)(F)F)cc1Cl [Compound 289, 2-Chloro-N-{3-chloro-5-[5-(1H-tetrazol-5-yl)-benzothiazol-2-yloxy]-phenyl}-4-trifluoromethyl-benzenesulfonamide]"
18,< 1000 nM,"COc1ccc2nc(Oc3cc(Cl)cc(NS(=O)(=O)c4cc(C)c(Cl)cc4Cl)c3)sc2c1 [Compound 309, 2,4-Dichloro-N-[3-chloro-5-(6-methoxy-benzothiazol-2-yloxy)-phenyl]-5-methyl-benzenesulfonamide]"
19,< 1000 nM,"Cc1cc(S(=O)(=O)Nc2cc(Cl)cc(Oc3nc4cc(C#N)ccc4s3)c2)c(Cl)cc1Cl [Compound 288, 2,4-Dichloro-N-[3-chloro-5-(5-cyano-benzothiazol-2-yloxy)-phenyl]-5-methyl-benzenesulfonamide]"
20,< 1000 nM,"O=S(=O)(Nc1cc(Cl)c(Cc2cnc3ccccc3c2)c(Cl)c1)c1ccc(C(F)(F)F)cc1Cl [Compound 231, 2-Chloro-N-(3,5-dichloro-4-quinolin-3-ylmethyl-phenyl)-4-trifluoromethyl-benzenesulfonamide]"
21,< 1000 nM,"Cc1cc(S(=O)(=O)Nc2cc(Cl)cc(Cc3nc4cc(Cl)ccc4s3)c2)c(Cl)cc1Cl [Compound 333, 2,4-Dichloro-N-[3-chloro-5-(5-chloro-benzothiazol-2-ylmethyl)-phenyl]-5-methyl-benzenesulfonamide]"
22,< 1000 nM,"COc1ccc2nc(Oc3cc(Cl)cc(NS(=O)(=O)c4ccc(Cl)cc4Cl)c3)sc2c1 [Compound 308, 2,4-Dichloro-N-[3-chloro-5-(6-methoxy-benzothiazol-2-yloxy)-phenyl]-benzenesulfonamide]"
23,< 1000 nM,"CCOC(=O)c1ccc2nc(Oc3cc(Cl)cc(NS(=O)(=O)c4ccc(C(F)(F)F)cc4Cl)c3)sc2c1 [Compound 311, 2-[3-Chloro-5-(2-chloro-4-trifluoromethyl-benzenesulfonylamino)-phenoxy]-benzothiazole-6-carboxylic acid ethyl ester]"
24,< 1000 nM,"Cc1cc(S(=O)(=O)Nc2cc(Cl)c(Cc3ccc4ccccc4n3)c(Cl)c2)c(Cl)cc1Cl [Compound 226, 2,4-Dichloro-N-(3,5-dichloro-4-quinolin-2-ylmethyl-phenyl)-5-methyl-benzenesulfonamide]"
25,< 1000 nM,"Cc1cc(S(=O)(=O)Nc2cc(Cl)cc(Oc3nc4cc(Cl)ccc4s3)c2)c(Cl)cc1Cl [Compound 285, 2,4-Dichloro-N-[3-chloro-5-(5-chloro-benzothiazol-2-yloxy)-phenyl]-5-methyl-benzenesulfonamide]"
26,< 1000 nM,"O=S(=O)(Nc1cc(Cl)cc(Oc2nc3ccc(F)cc3s2)c1)c1ccc(C(F)(F)F)cc1Cl [Compound 304, 2-Chloro-N-[3-chloro-5-(6-fluoro-benzothiazol-2-yloxy)-phenyl]-4-trifluoromethyl-benzenesulfonamide]"
